Test system: genes predictive for the anti-inflammatory macrolide effect
Test: Genes statistically predictive of Clari response: differentially expressed with Clari but not the inactive macrolides MAA or Josa (Appendix E)
Type: cell-based
Details: pooled group mean
From the text: In the case of the above-mentioned (i) related to arachidonic acid biosynthesis, specifically, methods of the embodiment involve assaying whether a test macrolide alters biosynthesis of arachidonic acid, alters the expression or activities of enzymes involved in the biosynthesis or activation of arachidonic acid (e.g., arachidonic acid CoA synthetase, delta-6 desaturase, fatty acid elongase, and delta-5 desaturase, AA-related genes in Tables 2 and 3), or alters the expression of genes identified as predictive for the anti-inflammatory macrolide effect (Appendix E). Assays in which arachidonic acid or gene expression or enzymatic activity is detected can be carried out after contacting a cell with a test macrolide. Any cell line that secretes prostaglandin or produces arachidonic acid can be used. Epithelial and macrophages lines (e.g., A549 or THP-1) are suitable for this purpose; other cell lines can be identified by carrying out assays such as those described in the specific Examples, below. Alternatively, screening assays can be carried out after adding a test macrolide to an in vitro cell system (e.g., a cellular extract or liver microsome preparation) or an in vitro enzyme assay system.

CC[C@H]1OC(=O)[C@H](C)[C@@H](O[C@H]2C[C@@](C)(OC)[C@@H](O)[C@H](C)O2)[C@H](C)[C@@H](O[C@@H]2O[C@H](C)C[C@H](N(C)C)[C@H]2O)[C@](C)(O)C[C@@H](C)/C(=N\OCOCCOC)[C@H](C)[C@@H](O)[C@]1(C)O [roxithromycin]
mean group, FLJ20699 (SpotID 46633): 0.81 | mean group, ARHGAP1 (SpotID 46648): 0.96 | mean group, KIAA1172 (SpotID 46679): 0.92 | mean group, MKNK2 (SpotID 46825): 1.12 | mean group, ARHGDIA (SpotID 46843): 0.93 | mean group, CDIPT (SpotID 46896): 1.01 | mean group, PACE (SpotID 46923): 1.09 | mean group, METAP2 (SpotID 46935): 0.89 | mean group, EREG (SpotID 46988): 0.85 | mean group, C2orf3 (SpotID 47034): 0.90 | mean group, NUBP1 (SpotID 47241): 0.95 | mean group, EPOR (SpotID 47314): 1.14 | mean group, ADAM11 (SpotID 47352): 1.10 | mean group, P4HB (SpotID 47366): 1.18 | mean group, CETN2 (SpotID 47415): 1.18 | mean group, SNK (SpotID 47418): 0.82 | mean group, GCS1 (SpotID 47432): 1.02 | mean group, DCTN1 (SpotID 47439): 0.95 | mean group, RANBP1 (SpotID 47446): 0.89 | mean group, MSH3 (SpotID 47504): 0.99 | mean group, SERPINA1 (SpotID 47522): 0.95 | mean group, TRAP1 (SpotID 47622): 0.94 | mean group, NR4A2 (SpotID 47679): 1.14 | mean group, HSPA9B (SpotID 47694): 0.95 | mean group, NBS1 (SpotID 47754): 0.97 | mean group, POLA (SpotID 47776): 0.89 | mean group, GOT1 (SpotID 47802): 0.94 | mean group, ENTPD6 (SpotID 47811): 1.06 | mean group, SSI-1 (SpotID 47846): 0.93 | mean group, PRLR (SpotID 47850): 0.99 | mean group, P4HA1 (SpotID 47935): 1.18 | mean group, DNASE1L1 (SpotID 47950): 1.03 | mean group, USF2 (SpotID 47973): 1.05 | mean group, THBS1 (SpotID 47987): 0.71 | mean group, RPN2 (SpotID 47988): 1.02 | mean group, CUTL1 (SpotID 48004): 1.02 | mean group, SRF (SpotID 48026): 1.03 | mean group, FRDA (SpotID 48137): 0.90 | mean group, SFRS7 (SpotID 48149): 0.88 | mean group, ZAP3 (SpotID 48160): 0.95 | mean group, MAPK12 (SpotID 48233): 1.03 | mean group, GRB2 (SpotID 48266): 1.04 | mean group, GCN5L1 (SpotID 48301): 1.01 | mean group, CCT3 (SpotID 48345): 1.03 | mean group, MAPK9 (SpotID 48365): 0.94 | mean group, MGEA5 (SpotID 48411): 1.13 | mean group, SERPINB1 (SpotID 48415): 1.28 | mean group, DDC (SpotID 48456): 0.97 | mean group, BARD1 (SpotID 48461): 0.86 | mean group, SpotID 48486 (SpotID 48486 (gene symbol not given)): 0.94 | mean group, RPL13A (SpotID 48500): 0.92 | mean group, ARAF1 (SpotID 48521): 0.98 | mean group, APLP2 (SpotID 48530): 1.10 | mean group, NFE2L1 (SpotID 48557): 1.06 | mean group, XBP1 (SpotID 48620): 1.10 | mean group, SDCBP (SpotID 48646): 1.08 | mean group, FECH (SpotID 48654): 0.98 | mean group, HSPBP1 (SpotID 48693): 0.91 | mean group, P4HA1 (SpotID 48707): 1.18 | mean group, PPP3CB (SpotID 48717): 0.95 | mean group, IKKE (SpotID 48725): 0.94 | mean group, RALA (SpotID 48732): 1.06 | mean group, MAFB (SpotID 48747): 0.93 | mean group, KIAA0217 (SpotID 48804): 0.88 | mean group, ITGAE (SpotID 48921): 0.97 | mean group, PRSS25 (SpotID 49006): 1.14 | mean group, TM9SF2 (SpotID 49007): 1.18 | mean group, BNIP3L (SpotID 49028): 1.20 | mean group, SERPINB1 (SpotID 49117): 0.88 | mean group, ARTS-1 (SpotID 49155): 0.86 | mean group, RRS1 (SpotID 49169): 0.93 | mean group, APOE (SpotID 49233): 1.01 | mean group, TNFRSF10B (SpotID 49272): 1.08 | mean group, PPIB (SpotID 49314): 1.16 | mean group, YWHAH (SpotID 49318): 0.97 | mean group, TEB4 (SpotID 49360): 0.94 | mean group, SpotID 49374 (SpotID 49374 (gene symbol not given)): 1.03 | mean group, TRRAP (SpotID 49435): 0.92 | mean group, SRC (SpotID 49446): 1.14 | mean group, VTN (SpotID 49490): 0.94 | mean group, UBC (SpotID 49514): 1.09 | mean group, AP1G2 (SpotID 49524): 0.92 | mean group, LOC54543 (SpotID 49577): 1.02 | mean group, CSTF3 (SpotID 49606): 1.07 | mean group, CLN2 (SpotID 49618): 1.12 | mean group, BTN3A2 (SpotID 49673): 1.11 | mean group, SERPINF1 (SpotID 49679): 1.09 | mean group, CHAF1B (SpotID 49737): 0.88 | mean group, AD022 (SpotID 49767): 1.10 | mean group, CYC1 (SpotID 49787): 0.94 | mean group, AD022 (SpotID 49800): 1.09 | mean group, ATP2B4 (SpotID 49915): 1.06 | mean group, RFC1 (SpotID 49947): 0.93 | mean group, HIF1A (SpotID 50022): 0.93 | mean group, NDUFA2 (SpotID 50050): 1.02 | mean group, SCOP (SpotID 50079): 1.04 | mean group, CNOT3 (SpotID 50099): 0.86 | mean group, IL10RB (SpotID 50267): 1.08 | mean group, IKKE (SpotID 50342): 1.08 | mean group, LOC51295 (SpotID 50349): 0.84 | mean group, CFL1 (SpotID 50351): 1.00 | mean group, GOCAP1 (SpotID 50421): 1.10 | mean group, MGP (SpotID 50511): 0.98 | mean group, ARHC (SpotID 50513): 1.00 | mean group, BN51T (SpotID 50584): 1.07 | mean group, CKS2 (SpotID 50590): 0.89 | mean group, SpotID 50591 (SpotID 50591 (gene symbol not given)): 1.13 | mean group, SRP19 (SpotID 50601): 1.06 | mean group, BET1 (SpotID 50645): 1.01 | mean group, PRKDC (SpotID 50736): 0.92 | mean group, AD022 (SpotID 50738): 1.10
